Measured values taken from publication PMC5665932, “A novel peptide that improves metabolic parameters without adverse central nervous system effects” (Scientific Reports, 2017).

Assays:
UCP1 = UCP1 expression in 3T3-L1 differentiated adipocytes (Western blot); type: cell-based; conditions: for expression of UCP1 in 3T3-L1 adipose cells: 24 h treatment
Method: 3T3-L1 pre-adipocytes (American Type Culture Collection, Rockville, MD, USA) were cultured in complete medium comprising of DMEM (Dulbecco’s Modified Eagle Medium), containing 10% fetal bovine serum (Life Technologies, Carlsbad, CA, USA), 0.11 mg/mL pyruvate, 0.025 g/L penicillin (Sigma-Aldrich, Saint Louis, MO, USA) and 0.1 g/L streptomycin (Life Technologies, Carlsbad, CA, USA) at 37 °C and 5% CO2. For the experiments analyzing UCP1 expression, 3T3-L1 cells were seeded in 12-well plates at a confluence of 10 × 10^4 cells/mL/well. One day later, cells were differentiated using normal culture medium supplemented with 500 μM isobutylmethylxanthine (Sigma, St. Louis, MO, USA), 1 μM dexamethasone (Sigma, St. Louis, MO, USA), and 0.85 μg/mL bovine insulin (Sigma, St. Louis, MO, USA). After three days, the differentiation medium was changed to normal culture medium supplemented with 0.85 μg/mL bovine insulin. The fresh medium was renewed every 2 days. After 12 days of differentiation, cells were exposed for 24 h with either 5 µM rosiglitazone (RSG, Sigma, St. Louis, MO, USA), HP or Pep19 at different concentrations or with vehicle (normal culture medium plus protease inhibitor cocktail (Roche, Germany). Subsequent experiments were performed after preincubation for 2 min with and in the absence of either 5 µM rosiglitazone, 1 µM […], 1 µM AM251, 1 µM HP or vehicle (normal culture medium plus protease inhibitor cocktail (Roche, Germany) with subsequent addition of 1 µM Pep19 in medium. For Western-blot assays, cells were washed twice with ice-cold PBS, the supernatant was removed, and cells were lysed with 40 µL Laemmli buffer, transfered to tubes, sonicated and heated 95 °C during 5 min. Samples were kept at −20 °C till use. Before using, samples were thawed on ice, centrifuged, and proteins were separated on a 12% SDS-PAGE, followed by transfer to PVDF membranes (Merck Millipore, Darmstadt, Germany). […] Bands were visualized with Super-Signal West Pico Chemiluminescent substrate (Thermo Scientific) and quantified using ImageJ 1.49.

DIO Wistar rats [1] = experiment: Diet-induced obesity model: body weight, food intake, adipose tissue masses, adiposity index; type: in vivo; conditions: oral by gavage, 100 µg/Kg, mean ± SEM
Method: (§1) For the diet-induced obesity (DIO) model, male Wistar rats received instead of water a 20% sucrose solution for 13 consecutive weeks. All animals including controls received food ad libitum. Pep19 was administrated orally by gavages. After 13 weeks of treatment all rats were sacrificed by decapitation (after overnight fasting). Blood from the trunk was collected into tubes without anticoagulants and immediately centrifuged (3000 x g for 15 min at 4 °C), and serum was stored at −20 °C. Blood serum was used for all biochemical determinations. The adipose tissues masses were used to calculate the adiposity index (the percentage of the sum of all white adipose tissue pads in relation to total body weight).

DIO Wistar rats [2] = experiment: Diet-induced obesity model: serum/blood biochemical determinations; type: in vivo; conditions: oral by gavage, 100 µg/Kg, mean ± SEM
Method: as §1
Serum cholesterol and triglycerides were quantified enzymatically using commercial kits from Labtest Diagnóstica (Triglicerides Liquiform andLiquiform, Lagoa Santa, MG, Brazil). Insulin levels were determined using specific rat radioimmunoassay kits (Millipore Corporation, Billerica, MA, USA). Blood glucose concentration was measured by a glucometer (Advantage, Roche Diagnostics Corporation, Indianapolis, USA).

Male Wistar rats = experiment: Forced swim test; type: in vivo; conditions: first 5 min of the swim test, n = 6/group (Pep19), n = 8–10/group (rimonabant)
Method: The forced swim test was based on previous designs. Male Wistar rats were placed in a cylindrical plexiglass tank (50 cm high and 30 cm diameter) filled with water (19 °C) up to a level of 25 cm from the bottom. The animal’s behavior during the first 5 min of the swim test was scored by a trained observer and the following measures were taken: (1) time spent swimming, defined as movements of all four limbs, swimming around the tank or diving and (2) time spent floating, defined as the time the animal remained immobile with only occasional slight movements to keep the body balanced and the nose above the water.

C57BL/6J mice = experiment: Tetrad cannabinoid tests (catalepsy, tail temperature, locomotor activity, hot plate); type: in vivo; conditions: n = 6/group
Method: C57BL/6J mice were treated i.p. with Pep19 (0.1 or 1 mg/kg), the CB1R agonist WIN55,212-2 (5 mg/kg) or vehicle (n = 6 per group) and evaluated in the tetrad cannabinoid tests. Another group of animals received Pep19 (0.1 or 1 mg/kg) or saline i.p. for 10 days, once a day. In the last day of treatment the animals were subjected to the tetrad cannabinoid tests 30 minutes after the i.p. administration. The CB1 agonist WIN55,212-2 (5 mg/kg) was administrated i.p. 30 minutes before the experiments as a positive control (n = 6 per group).
It was assayed by the bar test[40], 30 min after drug administration. Briefly, each mouse was placed on a bar oriented parallel to and approximately 4 cm above the bench surface. Cataleptic behavior was defined as the time the animal remained motionless holding on to the bar; cutoff = 300 s[41].
It was determined by using a thermal probe (Thermocom®, Nashua, NH 03062, EUA) positioned 50 cm of the animal. The mean of five pictures of five different tail regions was compared between a basal evaluation and another observation 35 min after drug administration.
It was determined by an open field test, in which a mouse was placed in a circular cage (40 cm diameter), 37 min after drug administration. The distance traveled by the animal was recorded for 10 min by the software ANY-MAZE (Stoelting).
The mouse was placed on a heated plate at 56 °C. An experimenter measured the time it took for the mouse to lick the paws or jump off of the hot plate; cutoff = 30 s[42]. The variation between a basal evaluation and another one taken 45 min after drug administration was defined as the result.

c-Fos = experiment: Mice brain c-Fos protein immunohistochemistry; type: in vivo; conditions: 1 mg/kg administrated orally, two hours post administration, C57BL/6J mice, vs vehicle (water), n = 3/group
Method: Mice C57BL/6J (25 ± 2 g; n = 3 per group) were assigned randomly to receive gavage (v.o.) of either vehicle (water), or 1 mg/kg body weight HP or 1 mg/kg Pep19. All solutions were prepared minutes before use. Two hours post administrations mice were deeply anaesthetized with ketamine and xylazine (i.p.; […], respectively) and perfused transcardially with heparinised saline (5000 UI/kg) in phosphate buffer (PB 0.1 M, pH 7.3) followed by 4% paraformaldehyde in PB 0.1 M. The brains were post fixed and kept in 30% sucrose in 0.1 M PB to cryoprotect the tissue. […]
The regions of interest were identified based on a stereotaxic atlas[45]: arcuate hypothalamic nucleus (Arc), ventromedial hypothalamic nucleus (VMN), periaqueductal grey (PAG), orbitofrontal cortex (VO), accumbens nucleus (Acb). The corresponding images were captured using a Nikon Eclipse E800, camera DC-F1 with Nis Element program. cFos positive cells per section were counted manually using ImageJ (NIH/USA). Results are are expressed as the means ± standard error of the mean (SEM) of c-Fos immunoreactive cells per section in each brain area (5 sections/brain/structure). […] Data were statistically analyzed with GraphPad Prism software (GraphPad Software Inc, San Diego, CA, USA).

With `Cc1c(C(=O)NN2CCCCC2)nn(-c2ccc(Cl)cc2Cl)c1-c1ccc(I)cc1` [AM251] the “effect on UCP1 activation by Pep19” value (UCP1; 1 µM, preincubation 2 min, then Pep19 1 µM for 24 h, 3T3-L1 adipocyte cells) was “prevented UCP1 activation by Pep19”.

With `CN(CCOc1ccc(CC2SC(=O)NC2=O)cc1)c1ccccn1` (stereo not shown) [RSG, Rosiglitazone] the “expression of UCP1 in 3T3-L1 adipose cells” value (UCP1; 5 µM, positive control) was “increased the expression of UCP1”.

With `Cc1c(C(=O)NN2CCCCC2)nn(-c2ccc(Cl)cc2Cl)c1-c1ccc(Cl)cc1` [Rimonabant] the “Body weight (% of control day zero)” value (DIO Wistar rats [1]) was 111 ± 1.0 (n = 10) % of control day zero, the “Gonadal Adipose Tissue weight” value (DIO Wistar rats [1]) was 1.75 ± 0.1 (n = 10) g and the “Mesenteric Adipose Tissue weight” value (DIO Wistar rats [1]) was 0.86 ± 0.1 (n = 9) g. The “Retroperitoneal Adipose Tissue weight” value (DIO Wistar rats [1]) was 2.10 ± 0.1 (n = 10) g, the “Adiposity Index (total/100 g)” value (DIO Wistar rats [1]; percentage of the sum of all white adipose tissue pads in relation to total body weight) was 5.85 ± 0.2 (n = 9) total/100 g and the Glucose level (DIO Wistar rats [2]; glucometer) was 118.3 ± 4.2(n = 9) mg/dl. The “Cholesterol (% of control day zero)” value (DIO Wistar rats [2]; serum) was 98.51 ± 5.8 (n = 9) % of control day zero, the “Triacylglycerol (% of control day zero)” value (DIO Wistar rats [2]; serum) was 112 ± 7.7 (n = 10) % of control day zero and the Insulin (DIO Wistar rats [2]; serum, radioimmunoassay) was 2.71 ± 0.8 (n = 5) ng/mL. The “forced swim test: time spent swimming and time spent floating” value (Male Wistar rats) was “affected both time spent swimming (empty bars) and time spent floating”.

With `Cc1c(C(=O)c2cccc3ccccc23)c2cccc3c2n1[C@H](CN1CCOCC1)CO3` [WIN55,212–2] the “cannabinoid tetrad, positive control of the chronic experiment” value (C57BL/6J mice; 5 mg/kg i.p. 30 minutes before the experiments, P<0.05) was “affected all parameters evaluated” and the “cannabinoid tetrad (catalepsy, hot plate, locomotor activity, tail temperature)” value (C57BL/6J mice; 5 mg/kg i.p., positive control, p < 0.05) was “affected all the parameters evaluated”.

“PVNFKFLSH [HP, Hemopressin, …, inverse agonist of cannabinoid type 1 receptors]” was tested, and the “expression of UCP1 in 3T3-L1 adipose cells” value (UCP1; 0.1–10 µM, GAPDH loading control) was “increased the expression of UCP1” and the “number of cFos positive cells in brain areas (Arc, VMN, PAG, VO, Acb)” value (c-Fos) was “increased the number of cFos positive cells in Arc, VMN and PAG”.
